Reference: PubChem BioAssay AID2612 (Southern Research Specialized Biocontainment Screening …, 2010)
Active and inactive are the calls of the source. The rule behind the calls is not given here.

How the values were obtained:
[1] = compound effect on polymyxin resistance, Typhi, OD600 (AID 2612); conditions: Salmonella Typhi WT vs phoP-, polymyxin IC50 shift, OD600 24 h, at 150 µM; for polymyxin IC50 shift difference (WT - phoP-): stronger effect = higher value; for IC50 shift: measured here: polymyxin IC50 shift
[2] = system: Salmonella Typhi WT vs phoP-, polymyxin IC50 shift, OD600 24 h; experiment: as above

SMILES	polymyxin IC50 shift difference (WT - phoP-) [1]	IC50 shift ([1]; WT strain)	IC50 shift ([1]; phoP- strain)	IC50 ([2]; WT polymyxin IC50 at 150 uM) [µM]	IC50 ([2]; phoP- polymyxin IC50 at 150 uM) [µM]	IC50 [2] [µM]
CCn1cc(C(=O)O)c(=O)c2cc(F)c(N3CCN(C(=S)NC(=O)c4ccccc4Cl)CC3)cc21	-3.77 (inactive)	-1.35	2.42	3.45	0.0339	
O=C(Nc1ccc(Cl)cc1)N1CCCN(Cc2ccccc2F)C1	-11.9 (inactive)	-12.1	-0.267	14.9	3.07	
COc1c(N2CCN(C(=S)NCc3ccccc3)C(C)C2)c(F)cc2c(=O)c(C(=O)O)cn(C3CC3)c12 (centres undefined)	-3.42 (inactive)	-4.5	-1.08	7.25	3.83	
O=C1C2=C(Nc3ccccc3SC2c2ccco2)c2ccccc21 (centres undefined)		1.28	-24.4	1.47	27.4	4
Cc1ccc(Nc2cc(C)c3c(O)cccc3n2)cc1C	0.62 (inactive)	2.64	2.02		0.893	
S=C(NCc1ccc(Cl)cc1)Nc1ccncc1		-0.561	-25.9	0.669	28.8	20
